Test results reported in patent US20180021303A1, “BKCA CHANNEL ACTIVATOR FOR TREATING MUSCULAR DISORDER” (Canbex Therapeutics Limited, priority 2015, published 2018).

What was measured:
[1] = tested on: Biozzi ABH mice with visible spasticity (relapsing progressive experimental autoimmune encephalomyelitis); assay: Spasticity (limb stiffness against a strain gauge) in Biozzi ABH mice with relapsing progressive experimental autoimmune encephalomyelitis; assay type: in vivo, mouse; conditions: result in words
Description: BMS 204352 and NS 1619 were dissolved in ethanol:cremophor:phosphate buffered saline 1:1:18. […] Paxilline was used at 1 mg/kg, just below doses reported to cause tremors in mice.
Biozzi ABH were injected with mouse spinal cord homogenate in Freunds adjuvant on day 0 and day 7 based on published protocols (Al-Izki S. et al. Mult Scler Rel Dis. 2012; 1: 29-38 and relapsing progressive experimental autoimmune encephalomyelitis developed. Following the development of visible spasticity animals were randomly allocated to treatment groups and spasticity was assessed by measuring limb stiffness against a strain guage (Pryce G. et al. FASEB J. 28: 2014; 117-130).
Animals were injected with: • BMS 204352: 20 mg/kg i.p. n=11 (FIG. 1; Table 2); • NS 1619: 10 mg/kg i.p. n=13 (FIG. 2; Table 1); • NS 11021: 10 mg/kg i.p. n=13 (FIG. 3; Table 3) in ethanol:cremophor:PBS (1:1:18).

[2] = from previously published data; cited from earlier work
[3] = from previously published data; cited from earlier work; remark: listed apart in the source

Row | Structure (SMILES) | Efficacy in a mouse model of spasticity in multiple sclerosis [1] | CNS penetration [2] | Tolerability [3]
1 | COc1ccc(Cl)cc1[C@]1(F)C(=O)Nc2cc(C(F)(F)F)ccc21 [BMS 204352, (3S)-3-(5-chloro-2-methoxyphenyl)-3-fluoro-1,3-dihydro-6-(trifluoromethyl)-2H-Indol-2-one] | effective | CNS penetrant | well tolerated
2 | O=c1[nH]c2cc(C(F)(F)F)ccc2n1-c1cc(C(F)(F)F)ccc1O [NS 1619, 1,3-dihydro-1-[2-hydroxy-5-(trifluoromethyl)phenyl]-5-(trifluoromethyl)-2H-benzimidazol-2-one] | – | CNS excluded | –
